One molecule from patent publication US7371555B2, “Polypeptides having α-H-α-amino acid amide racemase activity and nucleic acids encoding the same” (DSM IP Assets B.V., priority 2002, dated 2008) can be followed below.

A value given as a limit tells only on which side of the number the result lay.

Data set [1] can be described thus: Stability of substrate in chemical blanks (HEPES-NaOH buffer without cells). It counts as physicochemical. As to conditions: HEPES-NaOH buffer pH 7.7, 139 hours, concentration constant (0.7 w/w %). The procedure: 1 ml Of disintegrated cells of each of the three strains was incubated in a HEPES-NaOH buffer (20 mM) pH 7.7, to which pyridoxal-5-phosphate (0.01 mM) was added as a cofactor and D-leucine amide (60.8 mM) as a substrate in a total volume of 10 ml (0.79 w/w % D-leucine amide). After 0 and 139 hours 1 ml samples were taken (of which the exact weight was measured) and the reaction in these samples was stopped by adding 1 ml methanol (of which the exact weight was measured too; to be able to calculate dilution factors). Stopped reaction mixtures were centrifuged to remove particulates. The supernatants were frozen at −86° C. until HPLC analysis according to the method given in Example 1. […]
From the table it can be seen that α-H-α-amino acid amide racemase activity is present in the disintegrated cells of Agrobacterium rhizogenes Na, Agrobacterium rhizogenes Bi and Arthrobacter nicotianae as D-leucine amide is converted into L-leucine; this conversion is not detected in the chemical blanks. In the chemical blanks no D-leucine or L-leucine could be detected even after 139 hours; the D-leucine amide concentration was constant (0.7 w/w %) meaning that D-leucine amide is very stable under the applied reaction conditions.

The subject of data set [2] is α-H-α-amino acid amide racemase from Arthrobacter nicotianae NCIMB 41126. The data set can be described thus: Substrate specificity, CFE from E. coli DH10B/pAn(1)PLV36D06 (Example 9). It counts as biochemical. As to conditions: relative to the activity towards D-leucine amide; 75 mM substrate, pH 8.0, 37° C. As to the method:
Preparation of the CFE of E. coli DH10B/pAn(1)PLV36D06 was performed as described in Example 7 for E. coli TOP10/pKEC_AZAR—3
Before applying the CFE from E. coli DH10B/pAn(1)PLV36D06 in the reactions with different enantiomerically pure α-H-α-amino acid amides to determine the substrate specificity of the A. nicotianae α-H-α-amino acid amide racemase, the E. coli amidases/aminopeptidases in this CFE were inhibited by a pre-treatment with an inhibitor cocktail. One tablet of Complete Mini Protease Inhibitor Cocktail (Roche Applied Science, Mannheim, Germany) was dissolved in 9 ml of the CFE followed by an incubation of 1 hour at room temperature. Next, reaction mixtures of 10 ml each (including the CFE) were prepared containing 50 mM HEPES-NaOH, pH 8.0, 20 μM pyridoxal-5-phosphate, 0.4 mg/ml BSA, 1 mM dithiothreitol and 75 mM of one of the amino acid amides tested. Reactions were started by the addition of 1 ml of the pre-treated CFE of E. coli DH10B/pAn(1)PLV36D06 or E. coli TOP10/pBAD/Myc-HisC (blank) and were incubated at 37° C. At regular time intervals samples of 1 ml were taken and transferred to vials containing 1 ml of 1M H3PO4 to stop the reaction. After sufficient dilution of the samples in 0.4 M borate buffer pH 9.4, the mixtures obtained were analyzed using HPLC to determine the exact concentrations of the two amino acid and two amino acid amide enantiomers according to the method of Example 7.

For data set [3], the system named is lyophilized O. anthropi IA cells. Put plainly: α-H-α-amino acid amide racemase activity of lyophilized O. anthropi IA cells. The format is biochemical, Ochrobactrum anthropi IA. Conditions: approximately 72 hours at 40° C., 10 times diluted reaction mixture. The procedure: O. anthropi IA cells were cultivated in Medium A containing DL-α-amino-ε-caprolactam (2 g/l) as sole nitrogen source. After incubation at 28° C. and 200 rpm for three days (OD620 nm=4.7), cells were harvested by centrifugation, washed in 20 mM HEPES-NaOH buffer of pH 7.7 and lyophilized.
The assay mixture consisted of 10 mM HEPES-NaOH buffer (pH 7.7) containing toluene (2,5 v/v %), pyridoxal-5-phosphate (20 μM), D- or L-leucine amide (2.5 m %) and in some cases EDTA (20 mM). Per assay 150 mg of lyophilized cells were used. Chemical blanks (with the assay mixture without the O. anthropi IA cells) were used as a negative control. All reaction mixtures (including the blanks) were incubated for approximately 72 hours at 40° C. before the reaction was stopped by the addition of 9 volumes of 1 M H3PO4. Finally, the reaction mixtures were analyzed by HPLC to determine the concentrations of D- and L-leucine amide and of D- and L-leucine. o-Phthaldehyde in combination with D-3-mercapto-2-methylpropionic acid was used in this HPLC method as a chiral reagent for the enantioseparation of these amino compounds (Duchateau, et al., J. Chromatogr. (1992) 623:237-245).
In a number of reactions EDTA was added to inhibit L- and/or D-specific amidase(s) present in the O. anthropi IA cells.
Without EDTA, amidases convert the substrate and/or product α-H-α-amino acid amides into α-H-α-amino acids thereby preventing direct detection of the other α-H-α-amino acid amide enantiomer as racemization product. […] Formation of L-leucine from D-leucine amide could not be detected in the chemical blank.

Turning to `CC(C)C[C@@H](N)C(N)=O` [D-leucine amide], the “stability under the applied reaction conditions” value in data set [1] is given as “very stable”. In data set [2], this molecule registered a Rel. initial activity of 100%. Besides, in data set [3] (with EDTA (20 mM)), the D-leucine came out at 0.007 m %, the D-leucine amide turned out to be 0.24 m %, the L-leucine is given as 0.008 m % and the L-leucine amide was determined as 0.032 m %. In data set [3] (without EDTA), the D-leucine worked out at 0.015 m %, the D-leucine amide is 0.22 m %, the L-leucine was 0.044 m % and the L-leucine amide is on record as below 0.001 m %.
